pEC50, pIC50: −log10 of the molar value.
How the values were obtained:
NCI-H226 cells [1] = experiment: Proliferation and cell viability assay, Cell Titer One; type: cell-based, human; details: Cell Titer One assay, 6 days
Experimental: (§1) Cell proliferation of a TEAD dependent NF2-null mesothelioma cell line, NCI-H226 was assayed using two different protocols. Results were confirmed in two different TEAD-non-dependent lung cancer cell lines, H23 and H28, were used as non-responsive controls, as indicated:
b) Cell Titer One (Promega, #G3582). The effect of the TEAD inhibitors disclosed herein on cell proliferation was also determined using the Promega Substrate Cell Titer Aqueous One Solution Reagent. The TEAD inhibitors were evaluated for the effects on cell proliferation responder (H226) and non-responder negative control cancer cell lines (CAMA1, H28), as well as non-transformed normal human cells (HUVEC, NHDF). Dissociated cells were resuspend in media (depending on cell line, either in DMEM, RPMI, or EMEM all with 10% FBS, with gentamicin as an antibiotic). Cells were seeded at 100 μL/well at 750 cells per well in 96-well plates and allowed to settle and attach. After an incubation of 24 hrs (37° C., 5% CO2, humidified incubator), 100 μL of test compound-containing media was added. A dilution series of 2000× concentrated stock of test compounds was prepared in DMSO, for final concentrations from 0.1 to 10,000 nM. After addition of test compound-containing media, cells were incubated for 6 days at 37° C., 5% CO2, humidified incubators). To measure cell density, 20 μL of Promega Substrate Cell Titer 96 Aqueous One Solution Reagent (Promega, #G3582) to each well was added according to the manufacturer's instructions. Plates were incubated at 37° C. for usually 3-8 hrs, to reach in the control cells (without compound) an OD of 1.5 at 490 nm. The OD was measured using Vmax [Molecular Devices] spectrophotometer plate reader. Media only-wells were used as background controls and cell densities normalized to DMSO vehicle control. EC50 were taken as the concentration achieving 50% of maximal growth inhibition.
(§2) For IC50 and EC50 data “A” indicates a value of less than 0.2 μM; the symbol “B” indicates a value in the range of from 0.2 μM up to 1 μM; and the symbol “C” indicates a value of greater than 1 μM. ND: no data.

NCI-H226 cells [2] = experiment: Proliferation and cell viability assay, CellTiter-Glo 2.0 (CTG); type: cell-based, human; details: 144 hrs
Experimental: as §1
a) CellTiter-Glo® 2.0 (Promega #G9243). The effect of the TEAD inhibitors disclosed herein on cell proliferation was determined in TEAD1-genetically dependent cell line NCI-H226 (responder cell line) and TEAD-independent cell lines (NCI-H23, HEK293T), as non-responder, negative control. Cells were seeded in 96-well plates (Thermo Scientific #167008) in growth media (RPMI-1640, Gibco #61870-010) for NCI-H226 and NCI-H23 or DMEM (Gibco #31966-021, HEK293T) with […] Heat Inactivated Fetal Bovine Serum (Gibco 10500-064) at 800 (NCI-H226 and HEK-293T) or 2000 (NCI-H23) cells per well at 37° C., […], humidified incubator; 24 hours later, fresh growth media containing test compound or DMSO vehicle was added and incubated with the cells for 144 hrs. TEAD inhibitor stocks were made at a 1000× fold excess in DMSO, and a dose response test compound dose range of 10,000 to 0.1 nM was used. Each treatment was carried out in triplicate. After 144 hrs of treatment, relative cell viability numbers were determined using the CellTiter-Glo 2.0 assay following the manufacturer's instructions. Test plates and CellTiter-Glo 2.0 reagent were allowed to equilibrate to room temperature. CellTiter-Glo 2.0 reagent was added at 1:1 reagent to media ratio to the 96-well cell plates, plates were placed on a plate shaker for 2 minutes and then incubated at room temperature for a further 10 minutes to allow complete cell lysis to occur. The mix was then transferred to white, 96-well luminometer assay plates (Greiner Bio One #655075). Luminescence was quantified using a CLARIOStar Plus multi-mode plate reader (BMG Labtech) in luminescence detection mode with the recommended settings (ultra-Glo pre-set: emission 545-50 nm with autofocus and enhanced dynamic range on). Relative cell density was expressed as a function of inhibitor concentration, with respect to DMSO-only control wells. Data where plotted using GraphPad Prism and IC50 values for the biological effect were calculated using the EC50 non-linear fit function using a sigmoidal, 4-parameter logistic, least squares fit with no constraints.
as §2

[3] = Homo sapiens, NCI-H226, responder cell line

Compound	pIC50 (NCI-H226 cells [1]; Homo sapiens, NCI-H226, 144 h)	pEC50 (NCI-H226 cells [2]; [3])	pIC50 (NCI-H226 cells [1])	pEC50 (NCI-H226 cells [2]; responder cell line)
CC1(c2ccc(Nc3ccc(C(F)(F)F)cc3)c(-c3cnccn3)c2)CCNC1=O (centres unmarked) [Compound 13, 3-methyl-3-(3-(pyrazin-2-yl)-4-((4-(trifluoromethyl)phenyl)amino)phenyl) pyrrolidin-2-one]	< 6.00	> 6.70	–	–
CC1(c2ccc(Nc3ccc(C(F)(F)F)cc3)c(Br)c2)CCNC1=O (centres unmarked) [Compound 24]	–	> 6.70	–	–
Cc1nnc(-c2cc(C3(C)CCNC3=O)ccc2Nc2ccc(C(F)(F)F)cc2)o1 (single isomer, unassigned) [Compound 8, 3-methyl-3-(3-(5-methyl-1,3,4-oxadiazol-2-yl)-4-((4-(trifluoromethyl)phenyl)amino)phenyl) pyrrolidin-2-one]	6.00 to 6.70	> 6.70	–	–
CC1(c2ccc(Nc3ccc(C(F)(F)F)cc3)c(-c3ncco3)c2)CCNC1=O (centres unmarked) [Compound 10, 3-methyl-3-(3-(oxazol-2-yl)-4-((4-(trifluoromethyl)phenyl)amino)phenyl) pyrrolidin-2-one]	> 6.70	> 6.70	–	–
Cn1cnc(-c2cc(CN3CC(=O)NC3=O)ccc2Nc2ccc(C(F)(F)F)cc2)c1 [Compound 4, 1-(3-(1-methyl-1H-imidazol-4-yl)-4-((4-(trifluoromethyl)phenyl)amino)benzyl) imidazolidine-2,4-dione]	> 6.70	> 6.70	–	–
Cn1cnc(-c2cc(C3(C)NC(=O)NC3=O)ccc2Nc2ccc(C(F)(F)F)cc2)c1 (single isomer, unassigned) [Compound 14, 5-methyl-5-(3-(1-methyl-1H-imidazol-4-yl)-4-((4-(trifluoromethyl)phenyl)amino)phenyl)imidazolidine-2,4-dione]	–	> 6.70	< 6.00	–
CC1(c2ccc(Nc3ccc(C(F)(F)F)cc3)c(-c3cccnn3)c2)CCNC1=O (centres unmarked) [Compound 12, 3-methyl-3-(3-(pyridazin-3-yl)-4-((4-(trifluoromethyl)phenyl)amino)phenyl) pyrrolidin-2-one]	< 6.00	> 6.70	–	–
CC(=O)c1ccc(Nc2ccc(C(F)(F)F)cc2)c(-c2cn(C)cn2)c1 [Compound 23, 1-(3-(1-methyl-1H-imidazol-4-yl)-4-((4-(trifluoromethyl)phenyl)amino)phenyl) ethan-1-one]	–	> 6.70	–	–
Cn1cnc(-c2cc(C3(C)C(=O)NCC3O)ccc2Nc2ccc(C(F)(F)F)cc2)c1 (centres unmarked) [Compound 19, 4-hydroxy-3-methyl-3-(3-(1-methyl-1H-imidazol-4-yl)-4-((4-(trifluoromethyl)phenyl)amino)phenyl) pyrrolidin-2-one]	–	6.00 to 6.70	–	–
Cc1nnc(-c2cc([C@@]3(C)CCNC3=O)ccc2Nc2ccc(C(F)(F)F)cc2)o1 (single isomer, unassigned) [Compound 7, 3-methyl-3-(3-(5-methyl-1,3,4-oxadiazol-2-yl)-4-((4-(trifluoromethyl)phenyl)amino)phenyl) pyrrolidin-2-one]	> 6.70	6.00 to 6.70	–	–
Cn1cnc(-c2cc(C3(C)C(=O)CNC3=O)ccc2Nc2ccc(C(F)(F)F)cc2)c1 (racemic) [Compound 16, 3-methyl-3-(3-(1-methyl-1H-imidazol-4-yl)-4-((4-(trifluoromethyl)phenyl)amino)phenyl) pyrrolidine-2,4-dione]	–	> 6.70	–	–
Cn1cnc(-c2cc(C3(C)NC(=O)NC3=O)ccc2Nc2ccc(C(F)(F)F)cc2)c1 (racemic) [Compound 9, 5-methyl-5-(3-(1-methyl-1H-imidazol-4-yl)-4-((4-(trifluoromethyl)phenyl)amino)phenyl) imidazolidine-2,4-dione]	> 6.70	> 6.70	–	–
Cn1cnc(-c2cc([C@@]3(C)CCNC3=O)ccc2Nc2ccc(C(F)(F)F)cc2)c1 (single isomer, unassigned) [Compound 6, 3-methyl-3-(3-(1-methyl-1H-imidazol-4-yl)-4-((4-(trifluoromethyl)phenyl)amino)phenyl)pyrrolidin-2-one]	–	–	6.00 to 6.70	> 6.70
Cn1cnc(-c2cc(C3(C)CCNC3=O)ccc2Nc2cccc(C(F)(F)F)c2)c1 (centres unmarked) [Compound 22, 3-methyl-3-(3-(1-methyl-1H-imidazol-4-yl)-4-((3-(trifluoromethyl)phenyl)amino)phenyl) pyrrolidin-2-one]	–	> 6.70	–	–
Cn1cnc(-c2cc([C@@]3(C)C(=O)CNC3=O)ccc2Nc2ccc(C(F)(F)F)cc2)c1 (stereo in doubt) [Compound 18, 3-methyl-3-(3-(1-methyl-1H-imidazol-4-yl)-4-((4-(trifluoromethyl)phenyl)amino)phenyl) pyrrolidine-2,4-dione]	–	–	–	> 6.70
Cn1cnc(-c2cc(CN3CCNC3=O)ccc2Nc2ccc(C(F)(F)F)cc2)c1 [Compound 3, 1-(3-(1-methyl-1H-imidazol-4-yl)-4-((4-(trifluoromethyl)phenyl)amino)benzyl)imidazolidin-2-one]	> 6.70	> 6.70	–	–
Cn1cnc(-c2cc([C@@]3(C)C(=O)CNC3=O)ccc2Nc2ccc(C(F)(F)F)cc2)c1 (stereo in doubt) [Compound 17, 3-methyl-3-(3-(1-methyl-1H-imidazol-4-yl)-4-((4-(trifluoromethyl)phenyl)amino)phenyl) pyrrolidine-2,4-dione]	–	> 6.70	–	–
Cn1nnc(-c2cc(C3(C)CCNC3=O)ccc2Nc2ccc(C(F)(F)F)cc2)n1 (racemic) [Compound 11, 3-methyl-3-(3-(2-methyl-2H-tetrazol-5-yl)-4-((4-(trifluoromethyl)phenyl)amino)phenyl) pyrrolidin-2-one]	> 6.70	> 6.70	–	–

From patent publication US20260317304A1, “TEAD INHIBITORS AND METHODS OF USE” (Sporos BioDiscovery, Inc., priority 2022, published 2026)
